According to ChEMBL document CHEMBL5046270, “A Selective and Orally Bioavailable Quinoline-6-Carbonitrile-Based Inhibitor of CDK8/19 Mediator Kinase with Tumor-Enriched Pharmacokinetics” (J Med Chem, 2022):

Legend:
[1] = Downregulation of CDK8/19 in HEK293 cells assessed as mRNA expression level in MYC gene at 1 uM for 3 hrs pretreatment and measured after 24 hr post wash-off by qt-PCR analysis; type: functional; details: Homo sapiens, time 27 hrs
[2] = molecular target: T1, Cyclin-C/Cyclin-dependent kinase 19 (Homo sapiens) (UniProt Q9BWU1+P24863); experiment: Binding affinity to recombinant human CDK19/cyclinC assessed as half life by TR FRET based assay; type: protein-complex assay
[3] = molecular target: CDK8/Cyclin C (Homo sapiens) (UniProt P49336+P24863); experiment: Binding affinity to kinase tracer 236 binding to His tagged recombinant human CDK8/cyclinC assessed as half life by TR FRET based assay; type: protein-complex assay
[4] = Elimination rate constant in tumor of BALB/c mouse xenografted with mouse CT26 cells at 100 mg/kg, po by LC-MS/MS analysis; type: ADME, organism-based, Neoplasm
[5] = molecular target: T1, Cyclin-C/Cyclin-dependent kinase 19 (Homo sapiens); experiment: Binding affinity to recombinant human CDK19/cyclinC assessed as rate constant (kon) by TR FRET based assay; type: protein-complex assay
[6] = molecular target: T2, Serine/threonine-protein kinase haspin (Homo sapiens) (UniProt Q8TF76); experiment: Inhibition of human HASPIN at 2 uM by competition binding assay relative to control; details: values are per cent of control
T2 sequence (whole entry): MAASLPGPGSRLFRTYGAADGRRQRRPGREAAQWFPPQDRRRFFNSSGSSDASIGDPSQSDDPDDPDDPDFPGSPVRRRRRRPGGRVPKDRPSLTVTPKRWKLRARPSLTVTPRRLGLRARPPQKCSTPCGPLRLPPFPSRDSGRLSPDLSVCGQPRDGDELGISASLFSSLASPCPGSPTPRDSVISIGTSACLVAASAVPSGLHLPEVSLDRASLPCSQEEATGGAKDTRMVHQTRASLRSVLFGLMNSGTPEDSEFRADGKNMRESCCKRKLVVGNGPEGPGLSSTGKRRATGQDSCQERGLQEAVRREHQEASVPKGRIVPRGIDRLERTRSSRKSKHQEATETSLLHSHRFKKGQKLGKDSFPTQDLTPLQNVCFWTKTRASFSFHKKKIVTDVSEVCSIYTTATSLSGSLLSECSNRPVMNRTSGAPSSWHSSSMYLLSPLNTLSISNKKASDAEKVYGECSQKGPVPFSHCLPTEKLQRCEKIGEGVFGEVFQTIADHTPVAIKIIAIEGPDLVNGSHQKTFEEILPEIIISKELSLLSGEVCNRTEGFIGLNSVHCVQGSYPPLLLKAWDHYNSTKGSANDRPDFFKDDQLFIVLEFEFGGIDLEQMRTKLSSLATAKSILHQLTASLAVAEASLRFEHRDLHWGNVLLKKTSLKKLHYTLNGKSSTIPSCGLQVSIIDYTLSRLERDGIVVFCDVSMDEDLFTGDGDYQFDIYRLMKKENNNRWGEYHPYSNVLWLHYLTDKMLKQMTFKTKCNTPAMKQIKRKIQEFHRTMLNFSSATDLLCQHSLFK

[7] = Inhibition of CDK8/CDK19 in MV4-11 cells and measured after 7 days by Spectra max iD5 microplate reader; type: cell-based, Homo sapiens
[8] = Tmax in plasma of BALB/c mouse xenografted with mouse CT26 cells at 100 mg/kg, po by LC-MS/MS analysis; type: ADME, organism-based
[9] = Elimination rate constant in tumor of BALB/c mouse xenografted with mouse CT26 cells at 2.5 mg/kg, iv by LC-MS/MS analysis; type: ADME, organism-based, Neoplasm
[10] = Cmax in tumor of BALB/c mouse xenografted with mouse CT26 cells at 2.5 mg/kg, iv by LC-MS/MS analysis; type: ADME, organism-based, Neoplasm; parameters: route intravenous, dose 2.5 mg/kg
CDK8/Cyclin C = CDK8/Cyclin C (Homo sapiens, UniProt P49336); experiment: Inhibition of kinase tracer 236 binding to His tagged recombinant human CDK8/cyclin C incubated for 60 min FRET based LanthaScreen Eu-Kinase binding assay; type: protein-complex assay
[11] = molecular target: T3, Myosin-IIIb (Homo sapiens) (UniProt Q8WXR4); experiment: Inhibition of human MYO3B at 2 uM by competition binding assay relative to control; details: values are per cent of control
T3 sequence (whole entry): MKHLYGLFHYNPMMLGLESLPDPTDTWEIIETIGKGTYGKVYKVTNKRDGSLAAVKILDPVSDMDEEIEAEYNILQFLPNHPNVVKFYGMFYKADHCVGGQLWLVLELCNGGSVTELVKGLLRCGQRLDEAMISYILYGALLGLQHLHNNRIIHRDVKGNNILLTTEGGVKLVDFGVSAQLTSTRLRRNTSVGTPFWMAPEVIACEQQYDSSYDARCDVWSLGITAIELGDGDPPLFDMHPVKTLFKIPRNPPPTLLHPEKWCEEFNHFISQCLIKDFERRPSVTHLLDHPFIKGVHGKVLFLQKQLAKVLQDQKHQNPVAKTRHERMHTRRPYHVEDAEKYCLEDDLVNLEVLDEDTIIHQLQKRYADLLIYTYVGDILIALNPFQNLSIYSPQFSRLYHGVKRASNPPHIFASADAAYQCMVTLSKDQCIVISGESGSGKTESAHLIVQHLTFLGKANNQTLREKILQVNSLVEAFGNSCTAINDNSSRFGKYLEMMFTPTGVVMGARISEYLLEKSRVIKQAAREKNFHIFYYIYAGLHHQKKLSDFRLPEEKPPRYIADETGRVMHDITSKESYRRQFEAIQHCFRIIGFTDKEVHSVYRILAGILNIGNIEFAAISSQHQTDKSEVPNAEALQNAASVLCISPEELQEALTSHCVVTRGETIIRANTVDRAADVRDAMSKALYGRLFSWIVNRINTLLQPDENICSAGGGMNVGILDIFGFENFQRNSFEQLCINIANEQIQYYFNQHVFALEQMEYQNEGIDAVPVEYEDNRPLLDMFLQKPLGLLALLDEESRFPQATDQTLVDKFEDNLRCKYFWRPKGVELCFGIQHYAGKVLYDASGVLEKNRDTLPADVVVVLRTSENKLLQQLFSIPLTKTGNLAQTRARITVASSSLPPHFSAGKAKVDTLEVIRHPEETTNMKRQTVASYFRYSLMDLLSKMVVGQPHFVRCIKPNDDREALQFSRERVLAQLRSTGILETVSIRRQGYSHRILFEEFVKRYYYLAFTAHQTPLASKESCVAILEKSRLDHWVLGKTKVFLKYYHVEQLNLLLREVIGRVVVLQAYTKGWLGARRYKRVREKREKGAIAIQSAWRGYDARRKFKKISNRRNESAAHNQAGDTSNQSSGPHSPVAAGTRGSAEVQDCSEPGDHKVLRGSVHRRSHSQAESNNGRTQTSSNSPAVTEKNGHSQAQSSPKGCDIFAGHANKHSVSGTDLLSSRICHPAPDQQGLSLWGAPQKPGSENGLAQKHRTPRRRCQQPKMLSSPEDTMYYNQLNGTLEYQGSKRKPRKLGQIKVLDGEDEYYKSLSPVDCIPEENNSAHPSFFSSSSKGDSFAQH

[12] = molecular target: T1, Cyclin-C/Cyclin-dependent kinase 19 (Homo sapiens); experiment: Binding affinity to recombinant human CDK19/cyclinC assessed as rate constant (koff) by TR FRET based assay; type: protein-complex assay
[13] = Cmax in tumor of BALB/c mouse xenografted with mouse CT26 cells at 100 mg/kg, po by LC-MS/MS analysis; type: ADME, organism-based, Neoplasm; parameters: route oral, dose 100 mg/kg

Chain of CDK8/Cyclin C (P49336 whole entry): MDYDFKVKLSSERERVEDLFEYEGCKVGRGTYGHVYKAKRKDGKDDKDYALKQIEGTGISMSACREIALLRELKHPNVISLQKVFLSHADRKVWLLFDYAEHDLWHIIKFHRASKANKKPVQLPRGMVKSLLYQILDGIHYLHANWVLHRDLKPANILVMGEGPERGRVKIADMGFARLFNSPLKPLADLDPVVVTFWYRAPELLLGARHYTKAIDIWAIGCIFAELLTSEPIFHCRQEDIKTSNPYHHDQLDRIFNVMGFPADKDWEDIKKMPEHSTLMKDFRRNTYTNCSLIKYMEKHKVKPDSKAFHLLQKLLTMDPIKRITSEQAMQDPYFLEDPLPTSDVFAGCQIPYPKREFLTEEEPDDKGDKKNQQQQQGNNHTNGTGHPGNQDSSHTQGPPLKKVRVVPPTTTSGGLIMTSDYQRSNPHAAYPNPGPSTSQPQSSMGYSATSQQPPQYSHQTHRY
Chain of CDK8/Cyclin C (P24863 whole entry, further chain): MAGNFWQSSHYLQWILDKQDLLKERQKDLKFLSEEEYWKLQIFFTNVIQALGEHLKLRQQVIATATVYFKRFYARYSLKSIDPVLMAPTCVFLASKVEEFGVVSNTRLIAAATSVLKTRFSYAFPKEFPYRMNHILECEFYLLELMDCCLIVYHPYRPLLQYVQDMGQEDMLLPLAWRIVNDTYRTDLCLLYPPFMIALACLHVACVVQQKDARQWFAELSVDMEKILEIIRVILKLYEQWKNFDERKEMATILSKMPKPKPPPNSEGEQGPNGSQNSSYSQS

T1/2 [2]: 4.25 min
T1/2 [3]: 9.45 min
k el [4]: 2.78e-05 s⁻¹
K [5]: 9.39 10^6/M/s
residual binding, % of control [6]: 29%
IC50 [7]: 108 nM
Tmax [8]: 720 min
k el [9]: 1.67e-05 s⁻¹
Cmax [10]: 488 ng/mL
IC50 (CDK8/Cyclin C): 3.6 nM
residual binding, % of control [11]: 31%
K [12]: 0.00272 s⁻¹
Cmax [13]: 5730 ng/mL
SMILES: CN1CCN(C(=O)c2ccc3cc(CCNc4ccnc5ccc(C#N)cc45)ccc3c2)CC1
inhibition at 1 µM [1]: 30%
